Experimental findings from patent publication US10975037B2 (priority 2018, dated 2021) are described below.

pIC50, pKd: −log10 of the molar value. Counter-ions that a name gives are not always drawn. Like-named read-outs stand apart in the source and are kept apart here.

Test [1] has as its system IL-17 production by CD4 T cells under conditions which favor Th17 differentiation. Description: Human Th17 assay (IL-17 production by CD4 T cells). The class given is cell-based. Particulars: Homo sapiens, CD4+ T; read-out: Human Th17 Assay, IC50. The procedure:
The human Th17 assay tests the effect of RORγt modulatory compounds on IL-17 production by CD4 T cells under conditions which favor Th17 differentiation. Total CD4^+ T cells were isolated from the peripheral blood mononuclear cells (PBMC) of healthy donors using a CD4^+ T cell isolation kit II, following the manufacturer's instructions (Miltenyi Biotec). […] 50 μL of compound at titrated concentrations in DMSO were added into each well at final DMSO concentration at 0.2%. Cells were incubated for 1 hour, then 50 μL of Th17 cell differentiation medium was added to each well. […] Cells were cultured at 37° C. and 5% CO2 for 3 days. Supernatants were collected and the accumulated IL-17 in culture was measured by using MULTI-SPOT® Cytokine Plate following manufacture's instruction (Meso Scale Discovery). The plate was read using Sector Imager 6000, and IL-17 concentration was extrapolated from the standard curve. The IC50s were determined by GraphPad.

A further test addresses full-length human RORγt (Homo sapiens (Human), UniProt P51449). Kind of test: RORγt (full-length human) reporter assay, conditions A or B, HEK293T cells. The class given is cell-based. Particulars: for inhibition at 6 µM: read-out: RORγt (FL) Reporter Assay A or B, % inhibition @ 6 μM; for inhibition at 3 µM: 3 μM compound concentration (footnote *); for inhibition at 0.67 µM: 0.67 μM compound concentration (footnote ****); for inhibition at 2 µM: 2 μM compound concentration. The procedure, abridged:
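Dual-luciferase read-out was taken after an overnight (16–20 h) compound exposure. Firefly data were scaled between DMSO-only and saturating reference compound, Renilla-normalized, then plotted against concentration for IC50.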

The target in test [2] is human RORγt ligand binding domain (RORγt LBD) (Homo sapiens (Human), UniProt P51449). Kind of test: RORγt ThermoFluor® assay (thermal shift binding). In short, it runs like this: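 Thermal shift with 0.065 mg/mL RORγt LBD and 60 μM 1,8-ANS in 100 mM Hepes pH 7.0, 10 mM NaCl, 2.5 mM GSH, 0.002% Tween-20.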
human RORγt ligand binding domain (RORγt LBD), sequence (P51449 other isoform, or with tags, fused parts or gaps): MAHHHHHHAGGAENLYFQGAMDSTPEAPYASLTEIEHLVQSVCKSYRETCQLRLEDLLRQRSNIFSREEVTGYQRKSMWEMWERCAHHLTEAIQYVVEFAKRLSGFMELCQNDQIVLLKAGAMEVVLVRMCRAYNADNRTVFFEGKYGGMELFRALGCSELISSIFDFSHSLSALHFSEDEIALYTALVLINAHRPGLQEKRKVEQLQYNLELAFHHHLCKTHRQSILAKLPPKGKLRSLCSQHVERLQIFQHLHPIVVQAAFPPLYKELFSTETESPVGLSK
Setting [3] is: HEK-293T, 6 μM compound concentration.
[4] abbreviates: RORγt (FL) Reporter Assay A or B, IC50, HEK293T cells.
The mark [5] stands for this setting: read-out: ThermoFluor® Assay, Kd.
Where [6] appears, read: HEK-293T, read-out: RORγt (FL) Reporter Assay A or B, % inhibition.

full-length human RORγt, sequence (P51449 other isoform, or with tags, fused parts or gaps): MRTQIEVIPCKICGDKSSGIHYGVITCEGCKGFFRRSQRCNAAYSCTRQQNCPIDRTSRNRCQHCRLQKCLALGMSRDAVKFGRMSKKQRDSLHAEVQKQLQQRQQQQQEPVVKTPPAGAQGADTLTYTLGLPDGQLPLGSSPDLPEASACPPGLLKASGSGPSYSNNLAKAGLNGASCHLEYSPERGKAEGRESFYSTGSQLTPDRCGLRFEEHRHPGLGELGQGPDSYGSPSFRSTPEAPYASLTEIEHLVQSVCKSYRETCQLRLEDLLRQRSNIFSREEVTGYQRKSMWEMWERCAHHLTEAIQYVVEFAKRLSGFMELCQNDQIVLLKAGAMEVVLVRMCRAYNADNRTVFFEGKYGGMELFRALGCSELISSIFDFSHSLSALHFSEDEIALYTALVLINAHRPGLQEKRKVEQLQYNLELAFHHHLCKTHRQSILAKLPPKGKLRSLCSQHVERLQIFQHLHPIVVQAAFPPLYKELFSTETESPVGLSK

As for `COc1cc(N[C@H](C)C(F)(F)F)ccc1-c1c(Cl)c(C(=O)NC[C@H]2CC[C@H](S(C)(=O)=O)CC2)nn1CCC#N` [Example 129, 4-Chloro-1-(2-cyanoethyl)-5-(2-methoxy-4-(((R)-1,1,1-trifluoropropan-2-yl)amino)phenyl)-N-(((1r,4R)-4-(methylsulfonyl)cyclohexyl)methyl)-1H-pyrazole-3-carboxamide], the pIC50 – broadly, −log10 of the IC50, conventionally taken in molar units – in test [1] is 5.64; at full-length human RORγt (setting [4]), 6.09. The inhibition (in general, the drop in the measured response relative to a control, in per cent) at 6 µM at full-length human RORγt (setting [3]) worked out at 102%. In addition, the pKd (usually −log10 of the Kd, conventionally taken in molar units) in test [2] (ThermoFluor® Assay, Kd) was 7.14.

With `CCn1nc(C(=O)NC[C@H]2CC[C@H](S(C)(=O)=O)CC2)c(Cl)c1-c1ccc(CC(C)(C)C(F)(F)F)cc1Cl` [Example 165, 4-Chloro-5-(2-chloro-4-(3,3,3-trifluoro-2,2-dimethylpropyl)phenyl)-1-ethyl-N-(((1r,4r)-4-(methylsulfonyl)cyclohexyl)methyl)-1H-pyrazole-3-carboxamide], the pIC50 in test [1] was 7.89; on full-length human RORγt (setting [4]), 8.10. The inhibition at 0.07 µM at full-length human RORγt (HEK-293T, 0.07 μM compound concentration (footnote *********), read-out: RORγt (FL) Reporter Assay A or B, % inhibition) was found to be 52%. The pKd in test [2] (setting [5]) was 9.35.

As for `CCn1nc(C(=O)NC[C@]2(N)CC[C@@H](S(C)(=O)=O)CC2)c(Cl)c1-c1ccc(CC(C)(C)C(F)(F)F)cc1OC(F)F` [Example 19, N-(((1s*,4s*)-1-Amino-4-(methylsulfonyl)cyclohexyl)methyl)-4-chloro-5-(2-(difluoromethoxy)-4-(3,3,3-trifluoro-2,2-dimethylpropyl)phenyl)-1-ethyl-1H-pyrazole-3-carboxamide 2,2,2-trifluoroacetic acid salt], in test [1], the pIC50 is 7.85. In addition, the inhibition at 3 µM at full-length human RORγt (setting [6]) was 122%.

Turning to `CCn1nc(C(=O)NC[C@H]2CC[C@H](S(C)(=O)=O)CC2)c(Cl)c1-c1ccc(CC(C)(C)C(F)(F)F)cc1OC` [Example 44, 4-chloro-1-ethyl-5-(2-methoxy-4-(3,3,3-trifluoro-2,2-dimethylpropyl)phenyl)-N-(((1r,4r)-4-(methylsulfonyl)cyclohexyl)methyl)-1H-pyrazole-3-carboxamide], the pIC50 in test [1] is 8.28. In addition, the inhibition at 0.67 µM at full-length human RORγt (setting [6]) amounted to 96%.

For the compound `CCn1nc(C(=O)NC[C@@H]2CC[C@@H](S(C)(=O)=O)CO2)c(Cl)c1-c1ccc(CC(C)(C)C(F)(F)F)cc1OC(F)F` (racemic) [Example 14, 4-Chloro-5-(2-(difluoromethoxy)-4-(3,3,3-trifluoro-2,2-dimethylpropyl)phenyl)-1-ethyl-N-(((2RS,5SR)-5-(methylsulfonyl)tetrahydro-2H-pyran-2-yl)methyl)-1H-pyrazole-3-carboxamide], the inhibition at […] on full-length human RORγt (HEK-293T, 0.22 μM compound concentration (footnote *******), read-out: RORγt (FL) Reporter Assay A or B, % inhibition) amounted to 99%. The compound further gave a pIC50 against full-length human RORγt (setting [4]) of 8.80. Besides, the pKd in test [2] (ThermoFluor® Assay, Kd) was 9.85.

Consider `CCS(=O)(=O)[C@H]1CC[C@H](CNC(=O)c2nn(C)c(-c3ccc(CC(C)(C)C(F)(F)F)cc3OC(F)F)c2Cl)CC1` [Example 156, 4-Chloro-5-(2-(difluoromethoxy)-4-(3,3,3-trifluoro-2,2-dimethylpropyl)phenyl)-N-(((1r,4r)-4-(ethylsulfonyl)cyclohexyl)methyl)-1-methyl-1H-pyrazole-3-carboxamide], for which the inhibition at […] on full-length human RORγt (HEK-293T, 0.33 μM compound concentration (footnote *****), read-out: RORγt (FL) Reporter Assay A or B, % inhibition) came to 89%. On full-length human RORγt (setting [4]), this compound gave a pIC50 of 7.70. The pKd in test [2] (setting [5]) is 8.82.

Turning to `CCn1nc(C(=O)NC[C@H]2CC[C@H](S(C)(=O)=O)CN2)c(Cl)c1-c1ccc(CC(C)(C)C(F)(F)F)cc1OC(F)F` (stereo in doubt) [Example 9, 4-Chloro-5-(2-(difluoromethoxy)-4-(3,3,3-trifluoro-2,2-dimethylpropyl)phenyl)-1-ethyl-N-(((2R*,5S*)-5-(methylsulfonyl)piperidin-2-yl)methyl)-1H-pyrazole-3-carboxamide hydrobromide], the inhibition at 1 µM at full-length human RORγt (HEK-293T, 1 μM compound concentration (footnote ***), read-out: RORγt (FL) Reporter Assay A or B, % inhibition) was determined as 104%. Further, on full-length human RORγt (setting [4]), the pIC50 was 8.04. Further, the pKd in test [2] (ThermoFluor® Assay, Kd) is 8.80.

For the compound `CCn1nc(C(=O)NC[C@H]2CC[C@H](S(C)(=O)=O)CC2)c(C(F)(F)F)c1-c1ccc(N[C@H](C)C(F)(F)F)cc1OC` [Example 218, 1-Ethyl-5-(2-methoxy-4-(((R)-1,1,1-trifluoropropan-2-yl)amino)phenyl)-N-(((1r,4R)-4-(methylsulfonyl)cyclohexyl)methyl)-4-(trifluoromethyl)-1H-pyrazole-3-carboxamide], the “RORγt (FL) Reporter Assay A or B, % inhibition @ 6 μM” value at full-length human RORγt (6 μM compound concentration) was 105%. The pIC50 at full-length human RORγt (HEK293T cells, read-out: RORγt (FL) Reporter Assay A or B, IC50) was 7.21. In test [2] (setting [5]), the pKd was 8.20.

For `CCn1nc(C(=O)NC[C@H]2CC[C@H](S(C)(=O)=O)CC2)c(C#N)c1-c1ccc(CC(C)(C)C(F)(F)F)cc1OC` [Example 127, 4-Cyano-1-ethyl-5-(2-methoxy-4-(3,3,3-trifluoro-2,2-dimethylpropyl)phenyl)-N-(((1r,4r)-4-(methylsulfonyl)cyclohexyl)methyl)-1H-pyrazole-3-carboxamide], the inhibition at 0.67 µM at full-length human RORγt (setting [6]) came out at 94%. This compound also showed a pIC50 at full-length human RORγt (setting [4]) of 7.70. The pKd in test [2] (setting [5]) was 8.43.

As to `CCn1nc(C(=O)NC[C@H]2CC[C@H](S(C)(=O)=O)CO2)c(Cl)c1-c1ccc(CC(C)(C)C(F)(F)F)cc1OC(F)F` (single isomer, unassigned) [Example 15, 4-Chloro-5-(2-(difluoromethoxy)-4-(3,3,3-trifluoro-2,2-dimethylpropyl)phenyl)-1-ethyl-N-(((2R*,5S)-5-(methylsulfonyl)tetrahydro-2H-pyran-2-yl)methyl)-1H-pyrazole-3-carboxamide], the inhibition at 0.67 µM at full-length human RORγt (setting [6]) was 113%. The pIC50 on full-length human RORγt (setting [4]) is 8.27. Further, the pKd in test [2] (ThermoFluor® Assay, Kd) was 9.89.

As to `CCn1nc(C(=O)NC[C@]2(O)CC[C@@H](S(C)(=O)=O)CC2)c(Cl)c1-c1ccc(C2(O)CCC(C(F)(F)F)CC2)cc1OC(F)F` (single isomer, unassigned) [Example 113, 4-Chloro-5-(2-(difluoromethoxy)-4-((1r*,4r*)-1-hydroxy-4-(trifluoromethyl)cyclohexyl)phenyl)-1-ethyl-N-(((1s,4s)-1-hydroxy-4-(methylsulfonyl)cyclohexyl)methyl)-1H-pyrazole-3-carboxamide], at full-length human RORγt (setting [6]), the inhibition at 3 µM stood at 88%. Besides, on full-length human RORγt (setting [4]), the negative-log IC50 (pIC50) is 7.21. Besides, the pKd in test [2] (ThermoFluor® Assay, Kd) was 6.92.

For the compound `CCCn1nc(C(=O)NC[C@]2(O)CC[C@@H](S(C)(=O)=O)CC2)c(Cl)c1-c1ccc(C[C@@H](C)C(F)(F)F)cc1OC` (single isomer, unassigned) [Example 42, 4-Chloro-N-(((1s,4S)-1-hydroxy-4-(methylsulfonyl)cyclohexyl)methyl)-5-(2-methoxy-4-((R*)-3,3,3-trifluoro-2-methylpropyl)phenyl)-1-propyl-1H-pyrazole-3-carboxamide], at full-length human RORγt (setting [6]), the inhibition at 2 µM is 101%. The same compound gave a pIC50 at full-length human RORγt (setting [4]) of 8.05. Also, the negative logarithm of the Kd (pKd) in test [2] (ThermoFluor® Assay, Kd) was 9.38.

For `CCn1nc(C(=O)NC[C@]2(C(=O)O)CC[C@H](S(C)(=O)=O)CC2)c(Cl)c1-c1ccc(CC(C)(C)C(F)(F)F)cc1OC(F)F` [Example 121, (1r*,4r*)-1-((4-Chloro-5-(2-(difluoromethoxy)-4-(3,3,3-trifluoro-2,2-dimethylpropyl)phenyl)-1-ethyl-1H-pyrazole-3-carboxamido)methyl)-4-(methylsulfonyl)cyclohexane-1-carboxylic Acid], the inhibition at 6 µM on full-length human RORγt (setting [3]) came out at 106%. The same compound had a pIC50 at full-length human RORγt (setting [4]) of 6.08. Moreover, the pKd in test [2] (ThermoFluor® Assay, Kd) was 7.37.

For the compound `CCn1nc(C(=O)NC[C@]2(O)CC[C@@H](S(C)(=O)=O)CC2)c(C)c1-c1ccc(CCC(F)(F)F)cc1OC` [Example 225, 1-Ethyl-N-(((1s,4s)-1-hydroxy-4-(methylsulfonyl)cyclohexyl)methyl)-5-(2-methoxy-4-(3,3,3-trifluoropropyl)phenyl)-4-methyl-1H-pyrazole-3-carboxamide], on full-length human RORγt (setting [6]), the inhibition at 2 µM was 76%. At full-length human RORγt (setting [4]), this compound gave a pIC50 of 7.03. In test [2] (setting [5]), the negative-log Kd (pKd) was 7.59.

On to `CCn1nc(C(=O)NC[C@H]2CC[C@H](S(C)(=O)=O)CC2)c(Cl)c1-c1ccc(N[C@H](C)C(F)(F)F)cc1OC(F)(F)F` [Example 190, 4-Chloro-1-ethyl-N-(((1r,4R)-4-(methylsulfonyl)cyclohexyl)methyl)-5-(2-(trifluoromethoxy)-4-(((R)-1,1,1-trifluoropropan-2-yl)amino)phenyl)-1H-pyrazole-3-carboxamide], for which the inhibition at 2 µM at full-length human RORγt (setting [6]) is 104%. For the same compound, the negative-log IC50 (pIC50) against full-length human RORγt (setting [4]) is 7.68. Moreover, the pKd in test [2] (setting [5]) is 8.92.
